Values joined by “and” are separate entries in the source; they are usually repeats but may differ in a detail not shown here. Equal values may be shown once.
What was measured:
Assay type in all cases: cell-based, human
[1] = tested on: SK-N-MC neuroepithelioma cells; test: 59Fe release from prelabelled cells (iron efflux); conditions: DFO 100 μM; for % Cellular Iron Released: labelled 3 h with 59Fe-transferrin 0.75 μM, reincubated 3 h at 37° C., chelators 50 μM, Mean±SD; for release of cellular 59Fe (FIG. 2A): 3 hr labelling, 3 hr reincubation, ligands 50 μM, FIG. 2A screening experiment
Procedure: The effect of chelators on ^59Fe uptake from ^59Fe-Tf and ^59Fe release from prelabelled cells was studied using standard procedures reported previously (Richardson et al., 1994, J. Lab Clin. Med. 124 660–71). The amount of ^59Fe internalized by the cells was measured by incubation with the general protease pronase (1 mg/ml) for 30 min at 4° C. to remove membrane-bound ^59Fe and Tf (Richardson et al., 1990; Baker et al., 1998, Biochim. Biophys. Acta 1380 21–30).
The efflux of ^59Fe from SK-N-MC cells was examined after a 3 hr labelling period with ^59Fe-Tf (0.75 μM) followed by a 3 hr reincubation in the presence and absence of DFO (100 μM) or the remainder of the ligands at 50 μM (FIG. 2A).
Table 1. The effect of DFO, 311, PCTH, PCBH, or PCBHH on ^59Fe release from BE-2 neuroblastoma cells, SK-N-MC neuroepithelioma cells, and SK-Mel-28 melanoma cells. Cells were labeled for 3 h at 37° C. with ^59Fe-transferrin (0.75 μM), washed, and then reincubated with the chelators for 3 h at 37° C. […] Results are Mean±SD of three determinations in a typical experiment.

WAF1 mRNA = test: Northern blot analysis of mRNA levels; conditions: SK-N-MC cells, 20 h; chelators 25 μM, DFO 100 μM
Procedure: (§1) FIG. 6. The effect of the chelators on mRNA levels of GADD45, WAF1 and β-actin in SK-N-MC neuroepithelioma cells. Total RNA was extracted from cells after a 20 h incubation with medium alone (control) or medium containing ferric ammonium citrate (100 μg/mL), DFO (100 μM), or the other chelators (25 μM). The isolated RNA was then electrophoresed on a 1.2% agarose-formaldehyde gel, transferred to a hybridisation membrane, and probed under high stringency conditions.
(§2) Northern blot analysis was performed by isolating total RNA using the Total RNA isolation Reagent from Advanced Biotechnologies Ltd (Surrey, United Kingdom). The RNA (15 μg) was heat denatured at 90° C. for 2 mins in RNA-loading buffer and then loaded onto a 1.2% agarose-formaldehyde gel. After electrophoresis, RNA was transferred to a nylon membrane (GeneScreen, New England Nuclear, Boston, USA) in 10×SSC using the capillary blotting method. The RNA was then cross-linked to the membrane using a UV-crosslinker (UV Stratalinker 1800, Stragene Ltd., USA).
(§3) The membranes were hybridized with probes specific for human WAF1, GADD-45 and β-actin. The WAF1 probe consisted of a 1 kb fragment from pSXV(ATTC: Cat. No. 79928). The GADD45 probe consisted of a 760 bp fragment from human GADD45 cDNA cloned into pHu145B2 (kindly supplied by Dr. Albert Fornace, National Cancer Institute, NIH, Maryland). The β-actin probe consisted of a 1.4 kb fragment from human β-actin cDNA cloned into pBluescript SK-(ATTC: at. No 37997).
(§4) Hybridization of probes to the membranes and their subsequent washing were performed as described by Mahmoudi and Lin, 1989, Biotechniques 7, 331–2 using a Hybaid Shake and Stack Hybridization oven (Hybaid Ltd., Middlesex, UK). The membranes were then exposed to Kodak XAR Films at −70° C. with an intensifying screen. The probes were stripped from the nylon membrane by boiling in a solution containing 10 mM Tris-HCl (pH 7.0). 1 mM EDTA (pH 8.0) and 1% SDS for 15–30 mins as described by the membrane manufacturer. Densitometric data were collected with a Laser Densitometer and analyzed by Kodak Biomax Software (Kodak Ltd, USA).

GADD45 mRNA = test: Northern blot analysis of mRNA levels; conditions: SK-N-MC cells, 20 h; chelators 25 μM, DFO 100 μM
Procedure: as §1, §2, §3, §4

[2] = tested on: SK-N-MC neuroepithelioma cells; test: 3H-thymidine, 3H-leucine or 3H-uridine incorporation; conditions: 20 hr with chelators 50 μM, DFO 100 μM, then label 2 h, Mean±SD
Procedure: Labelling of cells with ^3H-thymidine (20 Ci/mmol: Dupont NEN, MA, U.S.A.), ^3H-uridine (42.7 Ci/mmol/Dupont NEN, MA, U.S.A.) and ^3H-leucine (52 Ci/mmol: Dupont NEN) was estimated after precipitation with trichloroacetic acid (TCA). After a 20 hr incubation with the chelators, ^3H-leucine, ^3H-uridine or ^3H-thymidine (1 μCi/ml) were then added for 2 hrs at 37° C. Subsequently, petri dishes containing cell cultures were placed on ice and washed four times with ice-cold Hanks' balanced salt solution (BSS) and the cells detached from the plate using 1 mM EDTA in Ca/Mg-free saline. The cells were then pelleted by centrifugation, the supernatant removed and the pellet frozen at −70° C. After thawing the cells on ice, 1 ml of ice-cold 20% TCA was added and the solution then vortexed and kept on ice for 1 hr with periodic mixing. This solution was then centrifuged at 15,000 rpm for 15 mins at 4° C. and the supernatant removed. The pellet was then washed twice with 1 ml of ice-cold 10% TCA. The pellet was dissolved in 0.5 ml of 1 M NaOH and transferred to scintillation tubes with 3 ml of scintillant. Radioactivity was measured on a β-scintillation counter (LKB Wallace, Finland).
Table 3. The effect of the chelators on ^3H-thymidine, ^3H-leucine, or ^3H-uridine incorporation into SK-N-MC neuroepithelioma cells. Cells were incubated for 20 hr at 37° C. with either DFO (100 μM) or the other chelators (50 μM). Following this, either ^3H-thymidine, ^3H-leucine, or ^3H-uridine (1 μCi/mL) were added and the cells incubated for an additional 2 h at 37° C. (see Methods for details). Results are Mean±SD (4–5 determinations) from a typical experiment of 2–4 experiments performed.

Structure (SMILES) | % Cellular Iron Released [1] [%] | level of WAF1 mRNA (FIG. 6) (WAF1 mRNA) | level of GADD45 mRNA (FIG. 6) (GADD45 mRNA) | 3H-Leucine incorporation, % Control [2] | 3H-Thymidine incorporation, % Control [2] | 3H-Uridine incorporation, % Control [2] | release of cellular 59Fe (FIG. 2A) [1]
O=C(NN=Cc1c(O)ccc2ccccc12)c1ccncc1 [Chelator 311, 2-hydroxy-1-naphthylaldehyde isonicotinoyl hydrazone, reference compound] | 49 ± 1 | increase | increase | 2 % Control and 2 ± 0.3 % Control | 0.1 % Control and 0.1 ± 0.1 % Control | 5 % Control and 5 ± 2 % Control | –
CC(=O)N(O)CCCCCNC(=O)CCC(=O)N(O)CCCCCNC(=O)CCC(=O)N(O)CCCCCN [DFO, desferrioxamine, reference compound] | 18 ± 3 | – | – | 9 % Control and 9 ± 0.7 % Control | 29 ± 13 % Control | 34 % Control and 34 ± 5 % Control | 19%
O=C(NN=Cc1ccco1)c1ccncc1 [FIH, 2furoylcarboxaldehyde isonicotinoyl hydrazone] | – | – | – | 78 ± 5 % Control | 17 ± 4 % Control | 48 ± 10 % Control | did not appreciably increase
O=C(NN=Cc1ccccn1)c1ccccc1 [PCBH, 2-pyridylcarboxaldehyde benzoyl hydrazone] | 47 ± 3 | did not have any effect | did not have any effect | 30 ± 13 % Control | 72 % Control and 72 ± 16 % Control | 31 ± 9 % Control | –
O=C(NN=Cc1ccccn1)c1cccs1 [PCTH, 2-pyridylcarboxaldehyde 2-thiophenecarboxyl hydrazone] | 51 ± 5 | did not have any effect | did not have any effect | 21 ± 6 % Control | 64 % Control and 64 ± 14 % Control | 43 ± 2 % Control | –
